In patent US20050222250A1, “Curcumin for the prevention and/or treatment of tissue damage” (priority 2002, published 2005):

Assays:
[1] = test system: animals (rats, cats, dogs, pigs and monkeys); conditions: fed to animals over a period of 60 weeks; cited from earlier work
[2] = test system: radiation-induced oral mucositis (mucosal ulceration) in the tongue of rats; assay: Radiation-induced oral mucositis in rat tongue, single dose studies (Example 2); type: in vivo, Sprague-Dawley rats; conditions: single dose irradiation of rat tongue; 0.5 ml per day oral gavage; placebo water
From the text: The animals were maintained, and all experimental procedures performed in compliance with the Animal (Scientific Procedures) Act 1986. While under anaesthesia the animal's tongue was slightly extended outside and a region of the underside of the tongue was irradiated in situ with single doses of 2.27 MeV β-rays from a 5 mm or 11 mm diameter ^90Sr/^90Y plaque. The dose-rate of the 5 mm ^90Sr/^90Y plaque was ˜10 Gy/min and that of 11 mm source was ˜3 Gy/min at the surface of the mucus membrane 5 mm source was used for single dose study and 11 mm source was used for fractionated studies. The irradiation was carried out by simply positioning the sealed ^90Sr/^90Y plaque in contact with the surface of the tongue. The tongue was stretched gently and radioactive source was placed with a uniform pressure in all cases in order to avoid any local hypoxia. […]
A total of 144 rats were used for this part of study. […] From the day after irradiation, until any acute radiation-induced oral mucosal lesion had healed, the animals' tongues were assessed daily for the presence of radiation-induced mucositis (mucosal ulceration) under light anaesthesia, maintained with a 1.5% Halothane, oxygen mixture. […] The dose modification factor (DMF), defined as the ratio of the dose of radiation to cause mucositis in ‘active’ agent group to that in ‘placebo’ group, was calculated. […]

| SMILES | Doses that have shown no toxicity [1] | Dose modification factor (DMF), active agent group vs placebo group [2] |
| --- | --- | --- |
| COc1cc(/C=C/C(=O)CC(=O)/C=C/c2ccc(O)c(OC)c2)ccc1O [Curcumin, diferuloylmethane] | 500-5000 mg/kg body weight |  |
| Cc1c(C)c2c(c(C)c1O)CC[C@@](C)(CCC[C@H](C)CCC[C@H](C)CCCC(C)C)O2 [α-tocopherol, 5,7,8-trimethyltocol] |  | 1.05 |
